# Results taken from ChEMBL document CHEMBL2157964, “Effect of alkyl chain length on sphingosine kinase 2 selectivity” (Bioorg Med Chem Lett, 2012).
# Tests used:
# [1] = target: T1, Sphingosine kinase 2 (Homo sapiens) (UniProt Q9NRA0); assay: Inhibition of recombinant SphK2 expressed in baculovirus infected Sf9 cells using D-erythro-sphingosine as substrate and [32gammaP]ATP assessed as residual activity at 10 uM by scintillation counting
# T1 sequence (whole entry): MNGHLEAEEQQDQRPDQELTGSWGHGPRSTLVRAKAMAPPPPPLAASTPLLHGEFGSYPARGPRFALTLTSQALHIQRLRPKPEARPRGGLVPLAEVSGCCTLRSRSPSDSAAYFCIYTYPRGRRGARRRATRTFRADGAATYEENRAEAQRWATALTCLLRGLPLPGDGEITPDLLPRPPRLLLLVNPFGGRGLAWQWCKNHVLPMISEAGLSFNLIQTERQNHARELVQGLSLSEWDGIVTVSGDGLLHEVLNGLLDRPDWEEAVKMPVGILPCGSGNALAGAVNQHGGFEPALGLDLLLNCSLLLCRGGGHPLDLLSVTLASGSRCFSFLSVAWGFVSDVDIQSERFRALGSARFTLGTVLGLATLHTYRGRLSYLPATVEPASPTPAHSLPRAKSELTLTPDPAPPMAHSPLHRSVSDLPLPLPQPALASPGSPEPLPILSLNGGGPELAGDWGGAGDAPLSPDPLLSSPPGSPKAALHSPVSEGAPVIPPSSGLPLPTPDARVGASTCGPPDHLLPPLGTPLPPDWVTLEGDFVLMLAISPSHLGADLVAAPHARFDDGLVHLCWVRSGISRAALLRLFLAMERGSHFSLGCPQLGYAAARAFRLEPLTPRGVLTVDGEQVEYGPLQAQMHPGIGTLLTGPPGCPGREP
# Sphingosine kinase 1 [2] = target: T2, Sphingosine kinase 1 (Homo sapiens, UniProt Q9NYA1); assay: Inhibition of recombinant SphK1 expressed in baculovirus infected Sf9 cells using D-erythro-sphingosine as substrate and [32gammaP]ATP assessed as residual activity at 10 uM by scintillation counting
# T2 sequence (Q9NYA1 whole entry): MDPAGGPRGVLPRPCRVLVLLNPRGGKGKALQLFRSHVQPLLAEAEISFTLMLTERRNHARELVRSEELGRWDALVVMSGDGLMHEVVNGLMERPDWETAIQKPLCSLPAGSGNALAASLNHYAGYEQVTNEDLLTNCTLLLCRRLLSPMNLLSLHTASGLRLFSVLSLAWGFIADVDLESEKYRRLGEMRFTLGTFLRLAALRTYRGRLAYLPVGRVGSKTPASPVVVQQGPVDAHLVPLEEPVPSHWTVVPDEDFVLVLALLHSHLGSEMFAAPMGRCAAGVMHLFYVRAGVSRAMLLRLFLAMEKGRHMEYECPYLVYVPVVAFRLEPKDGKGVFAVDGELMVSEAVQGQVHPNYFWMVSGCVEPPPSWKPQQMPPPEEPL
# Sphingosine kinase 2 [3] = target: T3, Sphingosine kinase 2 (Homo sapiens, UniProt Q9NRA0); assay: Inhibition of recombinant SphK2 expressed in baculovirus infected Sf9 cells using D-erythro-sphingosine as substrate and [32gammaP]ATP by scintillation counting
# T3 sequence (Q9NRA0 whole entry): T1 sequence (whole entry)
# Sphingosine kinase 1 [4] = target: T2, Sphingosine kinase 1; assay: Inhibition of recombinant SphK1 expressed in baculovirus infected Sf9 cells using D-erythro-sphingosine as substrate and [32gammaP]ATP by scintillation counting
# [5] = Selectivity ratio of Ki for recombinant SphK1 to Ki for recombinant SphK2
# Sphingosine kinase 2 [6] = target: T3, Sphingosine kinase 2; assay: Inhibition of SphK2 using sphingosine as substrate and [32gammaP]ATP after 15 to 20 mins by Cerenkov counting analysis
# Sphingosine kinase 2 [7] = target: T3, Sphingosine kinase 2; assay: Inhibition of human recombinant SphK2 using NBD-sphingosine as substrate after 2 hrs by HPLC analysis
SMILES,Activity [1] [%],Activity (Sphingosine kinase 1 [2]) [%],Ki (Sphingosine kinase 2 [3]) [µM],Ki (Sphingosine kinase 1 [4]) [µM],Ratio Ki [5],Ki (Sphingosine kinase 2 [6]) [µM],Ki (Sphingosine kinase 2 [7]) [µM]
CCCCCCCCCCC(=O)c1ccc([C@H]2CC[C@H]([N+](C)(C)CCC)CC2)cc1,40,79,–,–,–,–,–
CCCCCC(=O)c1ccc([C@H]2CC[C@H]([N+](C)(C)CCC)CC2)cc1,71,89,–,–,–,–,–
CCCCCCc1ccc([C@H]2CC[C@H]([N+](C)(C)CCC)CC2)cc1,98,98,43,35,–,–,–
CCCCCCCCCC#Cc1ccc([C@H]2CC[C@H]([N+](C)(C)CCC)CC2)cc1,28,62,–,–,–,–,–
CCCCCCCC#Cc1ccc([C@H]2CC[C@H]([N+](C)(C)CCC)CC2)cc1,100,87,–,–,–,–,–
CCCCCCCCCCCCCCCC(=O)c1ccc([C@H]2CC[C@H]([N+](C)(C)CCC)CC2)cc1,58,77,–,–,–,–,–
CCCCCCCCCCc1ccc([C@H]2CC[C@H]([N+](C)(C)CCC)CC2)cc1,26,67,43,35,–,–,–
CCCCCCCCCCCCCC(=O)c1ccc([C@H]2CC[C@H]([N+](C)(C)CCC)CC2)cc1,50,73,–,–,–,–,–
CCCCCCCCCCCCCCCCc1ccc([C@H]2CC[C@H]([N+](C)(C)CCC)CC2)cc1,70,94,29,27,–,–,–
CCCCCCCCCC(=O)c1ccc([C@H]2CC[C@H]([N+](C)(C)CCC)CC2)cc1,75,93,–,–,–,–,–
CCCCCCCCCCCCCCc1ccc([C@H]2CC[C@H]([N+](C)(C)CCC)CC2)cc1,38,76,7,36,3,–,–
CCCCCCCCc1ccc([C@H]2CC[C@H]([N+](C)(C)CCC)CC2)cc1,64,100,21,22,–,–,–
CCCCCCCOc1ccc([C@H]2CC[C@H]([N+](C)(C)CCC)CC2)cc1,70,100,–,–,–,–,–
CCCCCCCCCCCc1ccc([C@H]2CC[C@H]([N+](C)(C)CCC)CC2)cc1,50,44,11,15,–,–,–
CCCCCCCCc1ccc(CC[C@@](N)(CO)COC)cc1,–,–,–,–,–,16.5,–
CCCCCCCCC#Cc1ccc([C@H]2CC[C@H]([N+](C)(C)CCC)CC2)cc1,78,61,–,–,–,–,–
CCCCCCCCCCCC(=O)c1ccc([C@H]2CC[C@H]([N+](C)(C)CCC)CC2)cc1,41,88,–,–,–,–,–
O=C(NCc1ccncc1)C12CC3CC(C1)CC(c1ccc(Cl)cc1)(C3)C2 [ABC-294640],–,–,–,–,–,–,9.8
CCCCCCCCCCCCc1ccc([C@H]2CC[C@H]([N+](C)(C)CCC)CC2)cc1,26,63,8,13,–,–,–
